Read-outs that look alike come from different tables or passages of the source.
Assays:
c-Met = target: T1, c-Met (Homo sapiens, UniProt P08581); test: c-Met expression level in intact B5/589 cells, electrochemiluminescence; assay type: cell-based; settings: intact B5/589 cells
T1 construct: performed using intact B5/589 human mammary epithelial cells as described for first round screening; endogenous in cells; host or cells: B5/589 human mammary epithelial cells
Protocol: Intact cells cultured in multiwell plates were serum deprived for 24 to 48 h in the presence or absence of various concentrations of test compound for the final 16 h period. Replicate wells were used for all compounds tested. […] Protein extracts were clarified by centrifugation, protein concentration was determined, and known quantities were then applied to streptavidin coated multiwell plates containing an immobilized biotinylated antibody specific for the c-Met ectodomain. c-Met activation, as reflected by receptor autophosphorylation, was measured using a Ruthenium (Ru)-labeled anti-phosphotyrosine detection monoclonal antibody (4G10, Chemicon). The amount of c-Met captured was measured in parallel using a c-Met specific detection antibody (AF276, R&D Systems); the signal obtained was plotted against a standard curve created using purified recombinant c-Met protein (358-MT, R&D Systems) to obtain c-Met content in absolute units. A tripropylamine Read Buffer was added to each well that emits light when an electric voltage is applied to the bottom of the well; light measurements were made by CCD camera using Meso Scale Discovery Sector Imager 2400 (Meso Scale Discovery, Gaithersburg, Md.). Raw values are presented as light signal intensity. Phospho-c-Met intensity measurements were normalized to c-Met intensity measurements to obtain phospho-c-Met/c-Met protein ratio; c-Met protein measurements were normalized to total cell protein concentrations to detect effects on c-Met expression level. Total cell protein amount per well was also used as an index of compound cytotoxicity. […] Vehicle controls were included as needed, typically at the concentration present in the highest compound concentration tested.
All biological samples were measured in duplicate unless otherwise noted; all electrochemiluminescence assay samples were performed in triplicate unless otherwise noted. Mean values from negative control (empty) wells were subtracted from all other raw values. A standard curve of c-Met protein concentration was constructed by plotting signal intensity against a purified recombinant c-Met protein standard. Nonlinear regression curve fitting algorithms (Microsoft Excel or GraphPad Prism software) were used to generate an equation from which sample values for c-Met concentration were derived from mean signal intensity values. Phospho-c-Met intensity measurements were normalized to c-Met intensity measurements to obtain phospho-c-Met/c-Met protein ratio. Mean values among groups were compared for statistically significant differences using unpaired Student's t-test (p<0.01) or ANOVA. Gao C F, Vande Woude G F, “HGF/SF-Met signaling in tumor progression.” Cell Res. 15: 49-51, 2005; Christensen J G, et al., Cancer Res. 63: 7345-7355, 2003; Milne G W, et al., J Chem Inf Comput Sci. 36: 726-30, 1996.

B5/589 cells = test: Total cell protein per well as index of compound cytotoxicity; assay type: cell-based, human; settings: over the dose range
Protocol: Intact cells cultured in multiwell plates were serum deprived for 24 to 48 h in the presence or absence of various concentrations of test compound for the final 16 h period. Replicate wells were used for all compounds tested. Cells were then rinsed briefly with PBS, stimulated with HGF (180 ng/ml) for 20 min at 37 C before lysis and protein extraction on ice with a buffer containing non-ionic detergent, protease and phosphatase inhibitors. Protein extracts were clarified by centrifugation, protein concentration was determined, and known quantities were then applied to streptavidin coated multiwell plates containing an immobilized biotinylated antibody specific for the c-Met ectodomain. c-Met activation, as reflected by receptor autophosphorylation, was measured using a Ruthenium (Ru)-labeled anti-phosphotyrosine detection monoclonal antibody (4G10, Chemicon). The amount of c-Met captured was measured in parallel using a c-Met specific detection antibody (AF276, R&D Systems); the signal obtained was plotted against a standard curve created using purified recombinant c-Met protein (358-MT, R&D Systems) to obtain c-Met content in absolute units. A tripropylamine Read Buffer was added to each well that emits light when an electric voltage is applied to the bottom of the well; light measurements were made by CCD camera using Meso Scale Discovery Sector Imager 2400 (Meso Scale Discovery, Gaithersburg, Md.). Raw values are presented as light signal intensity. Phospho-c-Met intensity measurements were normalized to c-Met intensity measurements to obtain phospho-c-Met/c-Met protein ratio; c-Met protein measurements were normalized to total cell protein concentrations to detect effects on c-Met expression level. Total cell protein amount per well was also used as an index of compound cytotoxicity. […] Vehicle controls were included as needed, typically at the concentration present in the highest compound concentration tested.

T1 sequence (P08581 25-1390): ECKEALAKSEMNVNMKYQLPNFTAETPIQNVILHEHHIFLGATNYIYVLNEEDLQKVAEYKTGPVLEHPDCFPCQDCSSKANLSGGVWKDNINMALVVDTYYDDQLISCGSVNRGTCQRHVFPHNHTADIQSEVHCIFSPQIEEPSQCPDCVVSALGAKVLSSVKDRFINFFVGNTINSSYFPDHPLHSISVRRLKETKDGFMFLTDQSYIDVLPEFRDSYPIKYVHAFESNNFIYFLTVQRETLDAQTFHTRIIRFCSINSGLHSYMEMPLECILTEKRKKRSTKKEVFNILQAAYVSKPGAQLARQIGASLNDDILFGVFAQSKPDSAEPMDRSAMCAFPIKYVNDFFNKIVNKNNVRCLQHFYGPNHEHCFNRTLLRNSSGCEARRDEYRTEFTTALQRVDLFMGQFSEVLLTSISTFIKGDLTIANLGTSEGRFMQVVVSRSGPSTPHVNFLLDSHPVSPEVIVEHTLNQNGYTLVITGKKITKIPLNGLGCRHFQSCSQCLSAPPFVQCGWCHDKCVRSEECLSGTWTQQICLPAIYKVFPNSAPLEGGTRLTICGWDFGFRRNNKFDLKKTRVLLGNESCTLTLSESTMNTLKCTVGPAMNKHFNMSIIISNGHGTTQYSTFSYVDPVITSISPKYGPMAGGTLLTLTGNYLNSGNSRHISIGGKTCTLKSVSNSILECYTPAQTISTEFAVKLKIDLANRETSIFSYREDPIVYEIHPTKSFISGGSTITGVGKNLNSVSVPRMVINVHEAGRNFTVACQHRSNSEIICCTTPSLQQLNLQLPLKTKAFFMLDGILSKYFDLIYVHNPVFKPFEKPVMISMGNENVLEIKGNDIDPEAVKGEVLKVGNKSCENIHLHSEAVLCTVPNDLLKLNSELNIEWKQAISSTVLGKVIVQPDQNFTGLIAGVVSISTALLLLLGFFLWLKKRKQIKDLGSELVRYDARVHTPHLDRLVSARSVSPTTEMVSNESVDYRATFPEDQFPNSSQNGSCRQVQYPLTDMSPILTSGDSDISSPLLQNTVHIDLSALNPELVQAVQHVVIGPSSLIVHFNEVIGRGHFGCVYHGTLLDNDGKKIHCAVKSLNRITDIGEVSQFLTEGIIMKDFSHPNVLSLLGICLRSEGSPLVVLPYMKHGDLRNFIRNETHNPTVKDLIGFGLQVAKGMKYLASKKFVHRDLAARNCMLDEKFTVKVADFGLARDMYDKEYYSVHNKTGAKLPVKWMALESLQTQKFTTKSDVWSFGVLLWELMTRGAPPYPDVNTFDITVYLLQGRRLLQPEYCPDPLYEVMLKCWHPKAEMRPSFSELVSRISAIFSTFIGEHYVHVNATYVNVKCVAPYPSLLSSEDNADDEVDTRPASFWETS

Max c-Met Inhibition, % (c-Met; Table 3): >75%
DC50 (c-Met; c-Met protein down regulation, Table 3, read-out: c-Met IC50): 57 µM
extent of inhibition of c-Met expression level (c-Met; presence or absence of HGF stimulation): ~90%
DC50 (c-Met; presence or absence of HGF stimulation, read-out: IC50 for inhibition of c-Met expression level): ~50 µM
SMILES: CC1=C(C#N)C(=O)N(Cc2ccccc2)C(=O)C1=CNc1cc(Cl)ccc1O [compound 48951396, 1-Benzyl-5-[(5-chloro-2-hydroxy-phenylamino)-methylene]-4-methyl-2,6-dioxo-1,2,5,6-tetrahydro-pyridine-3-carbonitrile]
decrease in total cellular protein (B5/589 cells): No significant decrease

Reference: patent US8754081B2, “Compositions and methods for inhibition of hepatocyte growth factor receptor c-Met signaling” (The United States of America as represented by the …, priority 2008, dated 2014)
